In paper PMC10161260 (The Journal of antimicrobial chemotherapy, 2023):
Like-named read-outs stand apart in the source and are kept apart here.

What was measured:
[1] = set-up: species or system human; conditions: in vivo
[2] = clinical; set-up: species or system human; conditions: in vivo; for Cmax: po
[3] = Rectal swab / rectal secretion drug concentrations after two oral doses in MSM; assay type: in vivo, human; conditions: for Time of peak mean concentration on rectal swabs: hours after first dose; for Mean concentration on rectal swabs at 48 h: 48 h after first dose (elvitegravir peak), geometric mean; for Concentration on rectal swabs by 120 h: LLOQ 1 ng/swab
[4] = clinical; set-up: species or system human; conditions: in vivo; for Mean plasma concentration by 72 h (48 h after the second dose) / AUC0–120h in plasma / Cmax / Tmax: po
[5] = cited from earlier work
[6] = set-up: species or system human; conditions: in vivo; for Antiretroviral drug detection, glans swab / Antiretroviral drug detection, urethral swab: male, human
[7] = system: HIV; conditions: cited from earlier work
[8] = stated as known, no reference given; cited from earlier work
[9] = assay type: in vivo, human; conditions: for Mean peak concentration in rectal tissue: 48 h after the first dose; for Time of peak mean concentration in rectal tissue: after the first dose; for Time rectal tissue concentrations remained measurable after the second dose: in vivo
[10] = assay type: in vivo, human; conditions: for Cmax in PBMCs: all participants, geometric mean (95% CI)

For `C[C@H](Cn1cnc2c(N)ncnc21)OCP(=O)(O)O` [tenofovir], the “Detected in urine specimens (tenofovir and emtricitabine together)” value ([1]; male, human) was 273/276, the “Tenofovir concentration in rectal tissue” value ([2]; male, human) was “less than 1 ng/mg” and the “Time of peak mean concentration on rectal swabs” value (from here on “Time … on rectal swabs”) [3] was 48 h. The “Mean tenofovir concentration on rectal swabs at 48 h (peak)” value ([3]; not different between regimens) was 16 ng/swab.

With `Nc1nc(=O)n([C@@H]2CS[C@H](CO)O2)cc1F` [emtricitabine] the “Detected in urine specimens (tenofovir and emtricitabine together)” value ([1]; male, human) was 273/276, the “Time of peak mean rectal tissue emtricitabine concentration” value ([2]; male, human) was 4 h and the “Time … on rectal swabs” value [3] was 48 h. The “Mean emtricitabine concentration on rectal swabs at 48 h (peak)” value ([3]; participants also receiving bictegravir) was 57 ng/swab, the “Mean emtricitabine concentration on rectal swabs at 48 h (peak)” value ([3]; participants also receiving boosted elvitegravir) was 241 ng/swab and the “Mean plasma concentration by 72 h (48 h after the second dose)” value [4] was “undetectable”.

In the case of `C[C@H]1CO[C@@H]2Cn3cc(C(=O)NCc4ccc(F)cc4F)c(=O)c(O)c3C(=O)N12` [cabotegravir], the Tissue-to-plasma ratio [5] is listed as “low tissue-to-plasma ratio”.

With `COc1cc2c(cc1Cc1cccc(Cl)c1F)c(=O)c(C(=O)O)cn2[C@H](CO)C(C)C` [elvitegravir] the “Antiretroviral drug detection, urine” value ([1]; male, human) was 4/73 (5%), the “Detected in urine specimens” value ([1]; male, human) was 5% and the “AUC0–120h in rectal tissue” value [2] was 469.78 (321.92) ng × h/mg. The Tmax ([2]; male, human) was 4 h, the concentration at 2 h ([2]; male, human) was 1070 ng/g and the Cmax ([2]; male, human) was 3310 ng/g. The “Mean concentration on rectal swabs at 48 h” value [3] was 1085 ng/swab, the “Concentration on rectal swabs by 120 h” value [3] was “undetectable in most rectal swabs” and the “Elvitegravir rectal swab concentration at 48 h relative to bictegravir” value ([3]; P = 0.029) was “over 500 times”. The “Time … on rectal swabs” value [3] was 48 h, the “AUC0–120h in plasma” value [4] was 44 472 (4341) ng × h/mL and the “Mean plasma concentration by 72 h (48 h after the second dose)” value [4] was “undetectable”. The Cmax ([4]; male, human) was 2010 ng/mL, the Tmax ([4]; male, human) was 28 h and the “Detection in penile secretions” value [6] was “not consistently detected”. For the same compound, the “Antiretroviral drug detection, glans swab” value [6] was 9/80 (11%), the “Antiretroviral drug detection, urethral swab” value [6] was 14/68 (21%) and the “95% protein-adjusted inhibitory concentration (PAIC95)” value [7] was 45 ng/mL. For the same compound, the “Protein binding in plasma” value [8] was “highly protein bound”.

For `Nc1nc(=O)n([C@@H]2CS[C@H](COP(=O)(O)OP(=O)(O)OP(=O)(O)O)O2)cc1F` [emtricitabine triphosphate], the “Mean peak concentration in rectal tissue” value [9] was 64.1 fmol/mg, the “Time of peak mean concentration in rectal tissue” value [9] was 48 h and the “Time rectal tissue concentrations remained measurable after the second dose” value [9] was “at least 96 h”. The “Cmax in PBMCs” value [10] was 7549 (6528–8729) fmol/10^6 PBMC and the Tmax ([10]; male, human, PBMCs, oral, 200 mg) was 26 h.

For `CC(Cn1cnc2c(N)ncnc21)OCP(=O)(O)OP(=O)(O)OP(=O)(O)O` (stereo in doubt) [tenofovir diphosphate], the “Mean peak concentration in rectal tissue” value [9] was 15.3 fmol/mg, the “Time of peak mean concentration in rectal tissue” value [9] was 48 h and the “Time rectal tissue concentrations remained measurable after the second dose” value [9] was “at least 96 h”. The “Cmax in PBMCs” value [10] was 552 (297–1026) fmol/10^6 PBMC and the “Tmax in PBMCs” value ([10]; hours after first dose) was 28 h.

For `O=C(NCc1c(F)cc(F)cc1F)c1cn2c(c(O)c1=O)C(=O)N1[C@H]3CC[C@H](C3)O[C@@H]1C2` [bictegravir], the “Urine concentration within 48 h after the second dose” value [1] was “undetectable”, the “Antiretroviral drug detection, urine” value ([1]; male, human) was 32/70 (46%) and the “Detected in urine specimens” value ([1]; male, human) was 46%. For the same compound, the Mean urine concentration ([1]; male, human) was “less than 1 μg/mL”, the “AUC0–120h in rectal tissue” value [2] was 20.53 (5.14) ng × h/mg and the “Mean rectal tissue concentration relative to PAEC95” value ([2]; male, human) was “did not reach more than twice the PAEC95”. For the same compound, the concentration at 2 h ([2]; male, human) was 270 ng/g, the Cmax ([2]; male, human) was 290 ng/g and the “Mean concentration on rectal swabs at 48 h” value [3] was 2.1 ng/swab. For the same compound, the “Concentration on rectal swabs by 120 h” value [3] was “undetectable in most rectal swabs”, the “Plasma AUC0–120h of bictegravir relative to elvitegravir” value ([4]; human) was “more than twice” and the “AUC0–120h in plasma” value [4] was 94 437 (8748) ng × h/mL. The “Mean plasma concentration 96 h after dosing” value ([4]; male, human, 96 h) was 273 (95% CI: 164–456) ng/mL, the Cmax ([4]; male, human) was 1770 ng/mL and the Tmax ([4]; male, human) was 2 h. The “Detection in penile secretions” value [6] was “not consistently detected”, the “Antiretroviral drug detection, glans swab” value [6] was 2/71 (3%) and the “Antiretroviral drug detection, urethral swab” value [6] was 3/71 (4%). For the same compound, the “95% protein-adjusted effective concentration (PAEC95)” value [7] was 162 ng/mL and the “Protein binding in plasma” value [8] was “highly protein bound”.
